{"source": "patent US12061201B2", "about": "“Fluorescent probes for the visualization of FtsZ in gram-positive and gram-negative bacterial pathogens” (Rutgers, The State University of New Jersey, priority 2019, dated 2024)", "assay_in_all_cases": "Fluorescence anisotropy binding of BOFP to FtsZ", "conditions_in_all_cases": "for Kd: 50 mM Tris-HCl (pH 7.6), 50 mM KCl", "key": {"[1]": {"target": "T1, Acinetobacter baumannii FtsZ (AbFtsZ) (Acinetobacter baumannii, UniProt V5V8B6)", "T1 sequence (V5V8B6 1-391)": "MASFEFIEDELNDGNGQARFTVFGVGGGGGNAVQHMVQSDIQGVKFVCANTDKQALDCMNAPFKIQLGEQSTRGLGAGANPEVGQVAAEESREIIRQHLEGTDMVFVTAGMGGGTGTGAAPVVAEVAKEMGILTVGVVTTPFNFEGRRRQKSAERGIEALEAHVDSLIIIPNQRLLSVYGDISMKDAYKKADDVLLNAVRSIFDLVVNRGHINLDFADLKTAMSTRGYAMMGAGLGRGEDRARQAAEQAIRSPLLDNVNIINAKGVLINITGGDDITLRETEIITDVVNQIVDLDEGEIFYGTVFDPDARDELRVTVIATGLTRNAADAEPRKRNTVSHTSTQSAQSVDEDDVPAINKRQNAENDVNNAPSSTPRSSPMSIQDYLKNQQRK", "description": "(§1) Fluorescence anisotropy assay for determining the affinities and thermodynamics associated with the binding of BOFP to FtsZ proteins. Fluorescence anisotropy experiments were performed using an AVIV model ATF105 spectrofluorometer at 15, 25, or 37° C. In these experiments, bandwidths were set to 4 nm in both the excitation and emission directions, with the excitation and emission wavelengths being set at 488 nm and 510 nm, respectively. BOFP (0.1 μM) was titrated with increasing concentrations (ranging from 0 to 12 μM) of FtsZ in 120 μL of buffer containing 50 mM Tris-HCl (pH 7.6) and 50 mM KCl. After each protein addition, the samples were equilibrated for 3 minutes, whereupon the fluorescence anisotropy was measured.\n(§2) [formula] In this equation, r0 is the anisotropy of the protein-free compound, r∞ is the anisotropy of the compound in the presence of an infinite concentration of FtsZ, [C]tot is the total concentration of the compound, and [P]tot is the total concentration of protein with each addition. These analyses yielded the equilibrium dissociation constant (Kd) for each binding reaction.\n(§3) The binding free energy (ΔG) at temperature T was derived from the corresponding Kd value determined at T using the following relationship:\n(§4) [formula] The binding enthalpy (ΔH) and entropy (ΔS) were derived from linear fits of the ln(1/Kd) vs. 1/T plots shown in FIGS. 3f and 5e using the following relationship:\n(§5) A quartz ultra-micro cell (Hellma) with a 2×5 mm aperture and a 15 mm center height was used for all measurements. The pathlengths in the excitation and emissions directions were 1 and 0.2 cm, respectively. All steady-state anisotropy experiments were conducted in at least triplicate, with the reported anisotropies reflecting the average values."}, "[2]": {"target": "T2, Enterococcus faecium FtsZ (EfmFtsZ) (Enterococcus faecium, UniProt Q3Y2I1)", "T2 sequence (Q3Y2I1 1-413)": "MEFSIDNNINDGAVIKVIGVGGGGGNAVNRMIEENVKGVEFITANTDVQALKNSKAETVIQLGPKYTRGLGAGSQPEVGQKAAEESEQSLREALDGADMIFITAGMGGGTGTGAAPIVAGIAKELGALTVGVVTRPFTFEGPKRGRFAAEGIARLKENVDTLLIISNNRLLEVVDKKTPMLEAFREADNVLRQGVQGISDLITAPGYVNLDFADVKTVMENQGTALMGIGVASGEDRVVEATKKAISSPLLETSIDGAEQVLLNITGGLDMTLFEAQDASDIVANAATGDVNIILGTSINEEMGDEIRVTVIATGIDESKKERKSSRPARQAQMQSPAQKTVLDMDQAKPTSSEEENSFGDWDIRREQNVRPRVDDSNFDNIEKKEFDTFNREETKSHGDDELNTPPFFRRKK", "description": "as §1, §2, §3, §4, §5"}, "[3]": {"target": "Escherichia coli FtsZ (EcFtsZ) (Escherichia coli, UniProt P0A9A6)", "sequence (P0A9A6 whole entry)": "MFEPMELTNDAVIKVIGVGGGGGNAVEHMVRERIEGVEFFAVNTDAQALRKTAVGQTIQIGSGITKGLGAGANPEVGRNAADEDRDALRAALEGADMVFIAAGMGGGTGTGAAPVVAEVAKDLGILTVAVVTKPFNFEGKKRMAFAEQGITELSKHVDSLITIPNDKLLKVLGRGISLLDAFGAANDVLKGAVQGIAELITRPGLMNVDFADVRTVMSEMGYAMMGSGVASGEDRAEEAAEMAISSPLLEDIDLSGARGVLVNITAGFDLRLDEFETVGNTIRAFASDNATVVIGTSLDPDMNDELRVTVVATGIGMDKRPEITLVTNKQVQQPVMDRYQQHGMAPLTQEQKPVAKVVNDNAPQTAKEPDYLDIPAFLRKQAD", "description": "as §1, §2, §3, §4, §5"}, "[4]": {"target": "Klebsiella pneumoniae FtsZ (KpFtsZ) (Klebsiella pneumoniae, UniProt A0A0H3GRR0)", "sequence (A0A0H3GRR0 entry or part of it)": "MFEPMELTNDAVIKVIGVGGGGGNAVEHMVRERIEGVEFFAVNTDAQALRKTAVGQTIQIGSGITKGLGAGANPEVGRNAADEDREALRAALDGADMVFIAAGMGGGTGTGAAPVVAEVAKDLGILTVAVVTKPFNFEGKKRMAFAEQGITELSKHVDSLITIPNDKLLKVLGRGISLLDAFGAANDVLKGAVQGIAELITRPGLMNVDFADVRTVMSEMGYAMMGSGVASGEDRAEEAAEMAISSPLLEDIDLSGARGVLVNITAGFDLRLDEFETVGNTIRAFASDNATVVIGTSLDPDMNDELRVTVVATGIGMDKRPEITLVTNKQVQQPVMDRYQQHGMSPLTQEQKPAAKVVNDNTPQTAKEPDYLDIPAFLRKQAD", "description": "as §1, §2, §3, §4, §5"}, "[5]": {"target": "T3, Streptococcus agalactiae FtsZ (SagFtsZ) (Streptococcus agalactiae, UniProt Q8E183)", "T3 sequence (Q8E183 1-426)": "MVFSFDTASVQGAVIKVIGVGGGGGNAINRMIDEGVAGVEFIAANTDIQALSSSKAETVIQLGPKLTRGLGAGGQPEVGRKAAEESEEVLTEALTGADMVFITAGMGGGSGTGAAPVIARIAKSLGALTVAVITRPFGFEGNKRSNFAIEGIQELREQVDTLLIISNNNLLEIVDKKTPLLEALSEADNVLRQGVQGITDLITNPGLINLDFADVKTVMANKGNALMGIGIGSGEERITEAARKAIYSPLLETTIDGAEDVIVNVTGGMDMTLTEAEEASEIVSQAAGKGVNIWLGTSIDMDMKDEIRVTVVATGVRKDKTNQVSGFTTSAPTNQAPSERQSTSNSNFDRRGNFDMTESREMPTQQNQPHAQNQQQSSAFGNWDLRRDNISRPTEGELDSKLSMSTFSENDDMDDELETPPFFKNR", "description": "as §1, §2, §3, §4, §5"}, "[6]": {"target": "Streptococcus pyogenes FtsZ (SpyFtsZ) (Streptococcus pyogenes, UniProt Q99YV7)", "sequence (Q99YV7 entry or part of it)": "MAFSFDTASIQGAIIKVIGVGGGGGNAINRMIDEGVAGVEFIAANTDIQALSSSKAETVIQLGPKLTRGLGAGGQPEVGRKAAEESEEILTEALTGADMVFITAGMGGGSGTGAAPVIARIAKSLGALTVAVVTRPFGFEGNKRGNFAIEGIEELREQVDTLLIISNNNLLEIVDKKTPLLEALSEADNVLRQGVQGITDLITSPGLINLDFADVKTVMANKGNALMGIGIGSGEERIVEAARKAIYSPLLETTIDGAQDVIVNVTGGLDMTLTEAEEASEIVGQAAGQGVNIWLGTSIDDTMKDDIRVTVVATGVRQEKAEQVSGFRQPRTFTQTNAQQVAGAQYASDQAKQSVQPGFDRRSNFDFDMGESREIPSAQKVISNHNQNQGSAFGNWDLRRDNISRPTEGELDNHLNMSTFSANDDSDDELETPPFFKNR", "description": "as §1, §2, §3, §4, §5"}, "[7]": {"conditions": "linear fit of ln(1/Kd) vs. 1/T, Eq. 3"}}, "note": "Read-outs that look alike come from different tables or passages of the source.", "data": [{"compound": "CC1=CC(C)=[N+]2C1=Cc1ccc(CCC(=O)OCC(Oc3ccc(F)c(C(N)=O)c3F)c3nc(-c4ccc(C(F)(F)F)cc4)c(Br)o3)n1[B-]2(F)F", "note": "(stereo not drawn) [BOFP, 2-(5-bromo-4-(4-(trifluoromethyl)phenyl)-oxazol-2-yl)-2-(3-carbamoyl-2,4-difluorophenoxy)ethyl 3-(5,5-difluoro-7,9-dimethyl-5H-5λ^4,6λ^4-dipyrrolo[1,2-c:2′,1′-f][1,3,2]diazaborinin-3-yl)propanoate]", "values": [{"measurement": "ΔS contribution to the observed ΔG of binding", "setting": "[1]", "result": "> 50", "unit": "%"}, {"measurement": "Kd", "setting": "[1]; 15° C., read-out: Kd −15° C.", "result": "400 ± 30", "unit": "nM"}, {"measurement": "Kd", "setting": "[1]; 25° C., read-out: Kd −25° C.", "result": "550 ± 20", "unit": "nM"}, {"measurement": "Kd", "setting": "[1]; 37° C., read-out: Kd −37° C.", "result": "680 ± 40", "unit": "nM"}, {"measurement": "ΔH", "setting": "[1]; [7]", "result": "-4.2 ± 0.6", "unit": "kcal/mol"}, {"measurement": "ΔS", "setting": "[1]; [7]", "result": "+14.5 ± 2.1 cal/mol · K"}, {"measurement": "ΔS contribution to the observed ΔG of binding", "setting": "[2]", "result": "> 50", "unit": "%"}, {"measurement": "Kd", "setting": "[2]; 15° C., read-out: Kd −15° C.", "result": "2500 ± 140", "unit": "nM"}, {"measurement": "Kd", "setting": "[2]; 25° C., read-out: Kd −25° C.", "result": "2620 ± 80", "unit": "nM"}, {"measurement": "Kd", "setting": "[2]; 37° C., read-out: Kd −37° C.", "result": "3140 ± 220", "unit": "nM"}, {"measurement": "ΔH", "setting": "[2]; [7]", "result": "-1.9 ± 0.6", "unit": "kcal/mol"}, {"measurement": "ΔS", "setting": "[2]; [7]", "result": "+19.2 ± 1.9 cal/mol · K"}, {"measurement": "ΔH contribution to the observed ΔG of binding", "setting": "[3]", "result": "> 50", "unit": "%"}, {"measurement": "Kd", "setting": "[3]; 15° C., read-out: Kd −15° C.", "result": "220 ± 30", "unit": "nM"}, {"measurement": "Kd", "setting": "[3]; 25° C., read-out: Kd −25° C.", "result": "280 ± 20", "unit": "nM"}, {"measurement": "Kd", "setting": "[3]; 37° C., read-out: Kd −37° C.", "result": "440 ± 40", "unit": "nM"}, {"measurement": "ΔG", "setting": "[3]; T = 310K (37° C.), Eq. 2", "result": "-9.0 ± 0.1", "unit": "kcal/mol"}, {"measurement": "ΔH", "setting": "[3]; [7]", "result": "-5.6 ± 0.8", "unit": "kcal/mol"}, {"measurement": "ΔS", "setting": "[3]; [7]", "result": "+11.2 ± 2.7 cal/mol · K"}, {"measurement": "ΔH contribution to the observed ΔG of binding", "setting": "[4]", "result": "> 50", "unit": "%"}, {"measurement": "Kd", "setting": "[4]; 15° C., read-out: Kd −15° C.", "result": "420 ± 50", "unit": "nM"}, {"measurement": "Kd", "setting": "[4]; 25° C., read-out: Kd −25° C.", "result": "580 ± 40", "unit": "nM"}, {"measurement": "Kd", "setting": "[4]; 37° C., read-out: Kd −37° C.", "result": "820 ± 40", "unit": "nM"}, {"measurement": "ΔG", "setting": "[4]; T = 310K (37° C.), Eq. 2", "result": "-8.6 ± 0.1", "unit": "kcal/mol"}, {"measurement": "ΔH", "setting": "[4]; [7]", "result": "-5.4 ± 0.1", "unit": "kcal/mol"}, {"measurement": "ΔS", "setting": "[4]; [7]", "result": "+10.5 ± 0.1 cal/mol · K"}, {"measurement": "ΔH contribution to the observed ΔG of binding", "setting": "[5]", "result": "> 50", "unit": "%"}, {"measurement": "Kd", "setting": "[5]; 15° C., read-out: Kd −15° C.", "result": "620 ± 50", "unit": "nM"}, {"measurement": "Kd", "setting": "[5]; 25° C., read-out: Kd −25° C.", "result": "1020 ± 90", "unit": "nM"}, {"measurement": "Kd", "setting": "[5]; 37° C., read-out: Kd −37° C.", "result": "1310 ± 40", "unit": "nM"}, {"measurement": "ΔH", "setting": "[5]; [7]", "result": "-6.6 ± 0.6", "unit": "kcal/mol"}, {"measurement": "ΔS", "setting": "[5]; [7]", "result": "+5.4 ± 2.0 cal/mol · K"}, {"measurement": "ΔH contribution to the observed ΔG of binding", "setting": "[6]", "result": "> 50", "unit": "%"}, {"measurement": "Kd", "setting": "[6]; 15° C., read-out: Kd −15° C.", "result": "910 ± 60", "unit": "nM"}, {"measurement": "Kd", "setting": "[6]; 25° C., read-out: Kd −25° C.", "result": "1310 ± 80", "unit": "nM"}, {"measurement": "Kd", "setting": "[6]; 37° C., read-out: Kd −37° C.", "result": "1550 ± 80", "unit": "nM"}, {"measurement": "ΔG", "setting": "[6]; T = 310K (37° C.), Eq. 2", "result": "-8.2 ± 0.1", "unit": "kcal/mol"}, {"measurement": "ΔH", "setting": "[6]; [7]", "result": "-4.3 ± 1.1", "unit": "kcal/mol"}, {"measurement": "ΔS", "setting": "[6]; [7]", "result": "+12.8 ± 3.7 cal/mol · K"}]}]}
